Patent publication US10597388B2, “Pyridazinone herbicides” (FMC CORPORATION, priority 2014, dated 2020)

Legend:
Assay in all cases: Test C greenhouse herbicide test, pre- and postemergence
Assay type in all cases: in vivo
[1] = test system: galium (catchweed bedstraw, Galium aparine)
Description: (§1) Seeds of plant species selected from blackgrass (Alopecurus myosuroides), ryegrass, Italian (Italian ryegrass, Lolium multiflorum), wheat (winter wheat, Triticum aestivum), galium (catchweed bedstraw, Galium aparine), corn (Zea mays), large crabgrass, large (large crabgrass, Digitaria sanguinalis), foxtail, giant (giant foxtail, Setaria faberii), johnsongrass (Sorghum halepense), lambsquarters (Chenopodium album), morningglory (Ipomoea coccinea), nutsedge, yellow (yellow nutsedge, Cyperus esculentus), pigweed (Amaranthus retroflexus), ragweed (common ragweed, Ambrosia elatior), soybean (Glycine max), barnyardgrass (Echinochloa crus-galli), oilseed rape (Brassica napus), waterhemp (common waterhemp, Amaranthus rudis), and velvetleaf (Abutilon theophrasti) were planted into a blend of loam soil and sand and treated preemergence with test chemicals formulated in a non-phytotoxic solvent mixture which included a surfactant.
(§2) At the same time, plants selected from these crop and weed species and also chickweed (common chickweed, Stellaria media), kochia (Kochia scoparia), and oat, wild (wild oat, Avena fatua), were planted in pots containing Redi-Earth® planting medium (Scotts Company, 14111 Scottslawn Road, Marysville, Ohio 43041) comprising spaghnum peat moss, vermiculite, wetting agent and starter nutrients and treated with postemergence applications of test chemicals formulated in the same manner. Plants ranged in height from 2 to 18 cm (1- to 4-leaf stage) for postemergence treatments. Treated plants and controls were maintained in a greenhouse for 13 to 15 d, after which time all species were compared to controls and visually evaluated. Plant response ratings, summarized in Table C, are based on a scale of 0 to 100 where 0 is no effect and 100 is complete control. A dash (-) response means no test result.

[2] = test system: waterhemp (common waterhemp, Amaranthus rudis)
Description: as §1, §2

[3] = test system: johnsongrass (Sorghum halepense)
Description: as §1, §2

[4] = test system: crabgrass, large (large crabgrass, Digitaria sanguinalis)
Description: as §1, §2

[5] = test system: ragweed (common ragweed, Ambrosia elatior)
Description: as §1, §2

[6] = test system: velvetleaf (Abutilon theophrasti)
Description: as §1, §2

[7] = test system: nutsedge, yellow (yellow nutsedge, Cyperus esculentus)
Description: as §1, §2

[8] = test system: foxtail, giant (giant foxtail, Setaria faberii)
Description: as §1, §2

[9] = test system: pigweed (Amaranthus retroflexus)
Description: as §1, §2

[10] = test system: lambsquarters (Chenopodium album)
Description: as §1, §2

[11] = test system: morningglory (Ipomoea coccinea)
Description: as §1, §2

[12] = test system: oilseed rape (Brassica napus)
Description: as §1, §2

[13] = test system: blackgrass (Alopecurus myosuroides)
Description: as §1, §2

corn (Zea mays) = test system: corn (Zea mays)
Description: as §1, §2

[14] = test system: ryegrass, Italian (Italian ryegrass, Lolium multiflorum)
Description: as §1, §2

[15] = test system: barnyardgrass (Echinochloa crus-galli)
Description: as §1, §2

[16] = Postemergence, 31 g ai/ha, 0 to 100 scale (0 no effect, 100 complete control)
[17] = Postemergence, 125 g ai/ha, scale 0 to 100, 0 is no effect, 100 is complete control
[18] = Postemergence, 250 g ai/ha, scale 0 to 100, 0 no effect, 100 complete control, 13 to 15 d
[19] = Preemergence, 31 g ai/ha, scale 0 to 100, 0 is no effect, 100 is complete control
[20] = Preemergence, 62 g ai/ha, scale 0 to 100, 0 is no effect, 100 is complete control
[21] = Preemergence, 125 g ai/ha, scale 0 to 100, 0 is no effect, 100 is complete control
[22] = Preemergence, 250 g ai/ha, scale 0 to 100 (0 no effect, 100 complete control)
[23] = postemergence, 62 g ai/ha, scale 0 to 100, 0 no effect, 100 complete control

CCOC(=O)Oc1c(C)nn(C)c(=O)c1-c1c(CC)ccc2ccccc12 [Compound 37]
Galium plant response rating [1, 16]: 90 | Plant response rating, Galium [1, 17]: 95 | Plant response rating, Galium [1, 18]: 95 | Plant response rating, Galium [1, 19]: 100 | Plant response rating, Galium [1, 20]: 90 | Plant response rating, Galium [1, 21]: 95 | Galium plant response rating [1, 22]: 100 | Galium plant response rating [1, 23]: 95 | Waterhemp plant response rating [2, 16]: 85 | Plant response rating, Waterhemp [2, 17]: 80 | Plant response rating, Waterhemp [2, 18]: 98 | Plant response rating, Waterhemp [2, 19]: 90 | Plant response rating, Waterhemp [2, 20]: 95 | Plant response rating, Waterhemp [2, 21]: 95 | Waterhemp plant response rating [2, 22]: 100 | Waterhemp plant response rating [2, 23]: 80 | Johnsongrass plant response rating [3, 16]: 0 | Plant response rating, Johnsongrass [3, 17]: 5 | Plant response rating, Johnsongrass [3, 18]: 35 | Plant response rating, Johnsongrass [3, 19]: 0 | Plant response rating, Johnsongrass [3, 20]: 0 | Plant response rating, Johnsongrass [3, 21]: 5 | Johnsongrass plant response rating [3, 22]: 0 | Johnsongrass plant response rating [3, 23]: 5 | Crabgrass, Large plant response rating [4, 16]: 10 | Plant response rating, Crabgrass, Large [4, 17]: 25 | Plant response rating, Crabgrass, Large [4, 18]: 35 | Plant response rating, Crabgrass, Large [4, 19]: 5 | Plant response rating, Crabgrass, Large [4, 20]: 5 | Plant response rating, Crabgrass, Large [4, 21]: 20 | Crabgrass, Large plant response rating [4, 22]: 25 | Crabgrass, Large plant response rating [4, 23]: 20 | Ragweed plant response rating [5, 16]: 90 | Plant response rating, Ragweed [5, 17]: 98 | Plant response rating, Ragweed [5, 18]: 98 | Plant response rating, Ragweed [5, 19]: 85 | Plant response rating, Ragweed [5, 20]: 90 | Plant response rating, Ragweed [5, 21]: 95 | Ragweed plant response rating [5, 22]: 98 | Ragweed plant response rating [5, 23]: 95 | Velvetleaf plant response rating [6, 16]: 20 | Plant response rating, Velvetleaf [6, 17]: 85 | Plant response rating, Velvetleaf [6, 18]: 90 | Plant response rating, Velvetleaf [6, 19]: 25 | Plant response rating, Velvetleaf [6, 20]: 80 | Plant response rating, Velvetleaf [6, 21]: 85 | Velvetleaf plant response rating [6, 22]: 90 | Velvetleaf plant response rating [6, 23]: 70 | Nutsedge, Yellow plant response rating [7, 16]: 20 | Plant response rating, Nutsedge, Yellow [7, 17]: 65 | Plant response rating, Nutsedge, Yellow [7, 18]: 60 | Plant response rating, Nutsedge, Yellow [7, 19]: 0 | Plant response rating, Nutsedge, Yellow [7, 20]: 20 | Plant response rating, Nutsedge, Yellow [7, 21]: 40 | Nutsedge, Yellow plant response rating [7, 22]: 60 | Nutsedge, Yellow plant response rating [7, 23]: 40 | Foxtail, Giant plant response rating [8, 16]: 25 | Plant response rating, Foxtail, Giant [8, 17]: 60 | Plant response rating, Foxtail, Giant [8, 18]: 85 | Plant response rating, Foxtail, Giant [8, 19]: 65 | Plant response rating, Foxtail, Giant [8, 20]: 75 | Plant response rating, Foxtail, Giant [8, 21]: 85 | Foxtail, Giant plant response rating [8, 22]: 85 | Foxtail, Giant plant response rating [8, 23]: 35 | Pigweed plant response rating [9, 16]: 85 | Plant response rating, Pigweed [9, 17]: 95 | Plant response rating, Pigweed [9, 18]: 95 | Plant response rating, Pigweed [9, 19]: 98 | Plant response rating, Pigweed [9, 20]: 98 | Plant response rating, Pigweed [9, 21]: 100 | Pigweed plant response rating [9, 22]: 100 | Pigweed plant response rating [9, 23]: 100 | Lambsquarters plant response rating [10, 16]: 90 | Plant response rating, Lambsquarters [10, 17]: 95 | Plant response rating, Lambsquarters [10, 18]: 100 | Plant response rating, Lambsquarters [10, 19]: 85 | Plant response rating, Lambsquarters [10, 20]: 60 | Plant response rating, Lambsquarters [10, 21]: 85 | Lambsquarters plant response rating [10, 22]: 90 | Lambsquarters plant response rating [10, 23]: 90 | Morningglory plant response rating [11, 16]: 90 | Plant response rating, Morningglory [11, 17]: 98 | Plant response rating, Morningglory [11, 18]: 98 | Plant response rating, Morningglory [11, 19]: 70 | Plant response rating, Morningglory [11, 20]: 80 | Plant response rating, Morningglory [11, 21]: 90 | Morningglory plant response rating [11, 22]: 98 | Morningglory plant response rating [11, 23]: 95 | Oilseed Rape plant response rating [12, 16]: 40 | Plant response rating, Oilseed Rape [12, 17]: 40 | Plant response rating, Oilseed Rape [12, 18]: 50 | Plant response rating, Oilseed Rape [12, 19]: 0 | Plant response rating, Oilseed Rape [12, 20]: 40 | Plant response rating, Oilseed Rape [12, 21]: 60 | Oilseed Rape plant response rating [12, 22]: 90 | Oilseed Rape plant response rating [12, 23]: 20 | Blackgrass plant response rating [13, 16]: 35 | Plant response rating, Blackgrass [13, 17]: 80 | Plant response rating, Blackgrass [13, 18]: 85 | Plant response rating, Blackgrass [13, 19]: 10 | Plant response rating, Blackgrass [13, 20]: 30 | Plant response rating, Blackgrass [13, 21]: 90 | Blackgrass plant response rating [13, 22]: 90 | Blackgrass plant response rating [13, 23]: 40 | Corn plant response rating (corn (Zea mays); [16]): 0 | Plant response rating, Corn (corn (Zea mays); [17]): 20 | Plant response rating, Corn (corn (Zea mays); [18]): 30 | Plant response rating, Corn (corn (Zea mays); [19]): 0 | Plant response rating, Corn (corn (Zea mays); [20]): 0 | Plant response rating, Corn (corn (Zea mays); [21]): 0 | Corn plant response rating (corn (Zea mays); [22]): 20 | Corn plant response rating (corn (Zea mays); [23]): 10 | Ryegrass, Italian plant response rating [14, 16]: 80 | Plant response rating, Ryegrass, Italian [14, 17]: 90 | Plant response rating, Ryegrass, Italian [14, 18]: 90 | Plant response rating, Ryegrass, Italian [14, 19]: 50 | Plant response rating, Ryegrass, Italian [14, 20]: 85 | Plant response rating, Ryegrass, Italian [14, 21]: 90 | Ryegrass, Italian plant response rating [14, 22]: 95 | Ryegrass, Italian plant response rating [14, 23]: 85 | Barnyardgrass plant response rating [15, 16]: 25 | Plant response rating, Barnyardgrass [15, 17]: 60 | Plant response rating, Barnyardgrass [15, 18]: 90 | Plant response rating, Barnyardgrass [15, 19]: 10 | Plant response rating, Barnyardgrass [15, 20]: 30 | Plant response rating, Barnyardgrass [15, 21]: 70 | Barnyardgrass plant response rating [15, 22]: 80 | Barnyardgrass plant response rating [15, 23]: 20
